The test system of this experiment is SARS-CoV-2-NLuc in A549-hACE2 cells. The experiment is described as follows: microbe, parasite or virus in culture. Format: cell-based, SARS Coronavirus 2. Particulars: Severe acute respiratory syndrome coronavirus, 48 h.

The structures appear in SMILES notation. Where two headings read alike, the source gives them in different places.

A word on the EC50: it is the concentration at which the effect is half-maximal. With `COc1cc(-c2cc3[nH]c(=O)n(-c4cncc5cccnc45)c(=O)c3o2)c(Cl)cc1F` [Example 55, 6-(2-chloro-4-fluoro-5-methoxyphenyl)-3-(1,6-naphthyridin-8-yl)furo[3,2-d]pyrimidine-2,4(1H,3H)-dione], for the setting “read-out: MPro EC50”, the EC50 was determined as 250 nM.

Regarding `COc1cc(-c2cc3[nH]c(=O)n(-c4cncc(C)c4)c(=O)c3o2)c(Cl)cc1F` [Example 56], the EC50 (read-out: MPro EC50 (nM)) was 195 nM.

Turning to `COc1cc(-c2cc3c(o2)c(=O)n(-c2cncc4cccnc24)c(=O)n3CCC#N)c(Cl)cc1F` [Example 57, 3-(6-(2-chloro-4-fluoro-5-methoxyphenyl)-3-(1,6-naphthyridin-8-yl)-2,4-dioxo-3,4-dihydrofuro[3,2-d]pyrimidin-1(2H)-yl)propanenitrile], under “read-out: MPro EC50”, the concentration giving a half-maximal response (EC50) worked out at 19.7 nM.

Take `COc1cc(-c2cc3c(o2)c(=O)n(-c2cncc(C)c2)c(=O)n3CCC#N)c(Cl)cc1F` [Example 58]: the concentration for a half-maximal effect (EC50) (read-out: MPro EC50 (nM)) was 19.9 nM.

For the origin of these results see patent US20250296936A1, “SARS-COV2 MAIN PROTEASE INHIBITORS” (Gilead Sciences, Inc., priority 2024, published 2025).
